# Key:
# KDR (VEGFR2) = KDR (VEGFR2) (Homo sapiens (Human), UniProt P35968); assay: Z′-LYTE kinase inhibition assay (Invitrogen), KDR; assay type: biochemical; conditions: Z′-LYTE method; for inhibition at 1 µM: 1 μM compound, read-out: % inhibition at 1 μM against KDR
# Description: (§1) Inhibitory activities Inhibitory activities of compounds against BRAF, and BRAF V600E were measured by Invitrogen using Z′-LYTE® Method as briefly described in the following. 4× Test compounds are dissolved in 1% DMSO. […] ATP solutions are diluted to a 4×ATP working concentration in Kinase Buffer (50 mM HEPES pH 7.5, 0.01% BRIJ-35, 10 mM MgCl2, 1 mM EGTA). Reaction started by 30-second shaking of mixture consisting of 2.5 μL 4× test compound, […] and 2.5 μL 4×ATP Solution on Bar-coded Corning, low volume NBS, black 384-well plate (Corning Cat. #3676). Then the mixture was incubated for 60-minute at room temperature for the kinase reaction, followed by addition of 5 μL of a 1:1024 dilution of development reagent A and 30-second plate shake. The mixture was then incubated for another 60-minute at room temperature for development reaction. Fluorescence was read by plate reader. IC50 was calculated by plotting the concentration of compound vs the percentage of inhibition in treated wells using GraphPad Prism 5.
# Inhibitory activities of compounds against KDR (VEGFR2) were also measured by Invitrogen using Z′-LYTE® Method as described above with the following modification. The 2× KDR (VEGFR2)/Tyr 01 mixture is prepared in 50 mM HEPES pH 7.5, 0.01% BRIJ-35, 10 mM MgCl2, 1 mM EGTA. The final 10 μL Kinase Reaction consists of 0.5-11.7 ng KDR (VEGFR2) and 2 μM Tyr 01 in 50 mM HEPES pH 7.5, 0.01% BRIJ-35, 10 mM MgCl2, 1 mM EGTA. After the 1 hour Kinase Reaction incubation, 5 μL of a 1:256 dilution of Development Reagent B is added.
# The scale utilized in Table 5 is as follows: +++ less than 100 nM; and ++ greater than 100 nM
# A549 cells = assay: Inhibition of cancer cell growth, MTT assay, A549; assay type: cell-based; conditions: Homo sapiens, A549, 72 h exposure
# Description: (§2) Inhibition of cell growth by compounds was measured using MTT assay (Mosmann, T., Journal of Immunological Methods, 1983, 65, 55-63). Tumor cell lines were purchased from ATCC (American Type Culture Collection, Manassas, Va.). All cell lines were maintained in RPMI 1640 (Hyclone) supplemented with 10% fetal bovine serum (FBS, Hyclone), glutamine (2 mM, Hyclone), and antibiotics (penicillin 100 U/mL and streptomycin 50 μg/mL) at 37° C. in a humidified atmosphere of 5% CO2 in air. Taxol (as a positive control, Sigma) and compounds were dissolved in DMSO (Sigma), and the final concentration of DMSO in the medium was 1%. Tumor cells were plated in 96-well plates at densities of about 4000 cells/well of a 96-well plate and allowed to adhere/grow for 24 h. They were then treated with various concentrations of drug for 72 h. 3-(4,5-Dimethylthiazol-2-yl)-2,5-diphenyltetrazolium bromide (MTT, Sigma) was used to determine the number of viable cells at the time of compound addition and the number of cells remaining after 72 h compound exposure. The number of cells remaining after 72 h was compared to the number of viable cells at the time of compound addition by measuring the absorbance at 570 nm, allowing for the calculation of growth inhibition.
# (§3) All concentrations of compounds were tested in triplicate and controls were averaged over 4 wells. IC50 was calculated by plotting the concentration of compound vs the percentage of inhibition in treated wells using GraphPad Prism 5. […] The scale utilized in Table 6 is as follows: +++ less than 1000 nM; ++ between 1000 nM and 5000 nM; and + greater than 5000 nM. The scale utilized in Table 7 is as follows: +++ less than 2000 nM; ++ between 2000 nM and 5000 nM; and + greater than 5000 nM.
# BRAF V600E = BRAF V600E (Homo sapiens (Human), UniProt P15056, V600E); assay: Z′-LYTE kinase inhibition assay (Invitrogen), BRAF V600E; assay type: biochemical; conditions: Z′-LYTE method; for inhibition at 1 µM: 1 μM compound, read-out: % inhibition at 1 μM against BRAF V600E
# Chain of BRAF V600E (P15056 whole entry V600E): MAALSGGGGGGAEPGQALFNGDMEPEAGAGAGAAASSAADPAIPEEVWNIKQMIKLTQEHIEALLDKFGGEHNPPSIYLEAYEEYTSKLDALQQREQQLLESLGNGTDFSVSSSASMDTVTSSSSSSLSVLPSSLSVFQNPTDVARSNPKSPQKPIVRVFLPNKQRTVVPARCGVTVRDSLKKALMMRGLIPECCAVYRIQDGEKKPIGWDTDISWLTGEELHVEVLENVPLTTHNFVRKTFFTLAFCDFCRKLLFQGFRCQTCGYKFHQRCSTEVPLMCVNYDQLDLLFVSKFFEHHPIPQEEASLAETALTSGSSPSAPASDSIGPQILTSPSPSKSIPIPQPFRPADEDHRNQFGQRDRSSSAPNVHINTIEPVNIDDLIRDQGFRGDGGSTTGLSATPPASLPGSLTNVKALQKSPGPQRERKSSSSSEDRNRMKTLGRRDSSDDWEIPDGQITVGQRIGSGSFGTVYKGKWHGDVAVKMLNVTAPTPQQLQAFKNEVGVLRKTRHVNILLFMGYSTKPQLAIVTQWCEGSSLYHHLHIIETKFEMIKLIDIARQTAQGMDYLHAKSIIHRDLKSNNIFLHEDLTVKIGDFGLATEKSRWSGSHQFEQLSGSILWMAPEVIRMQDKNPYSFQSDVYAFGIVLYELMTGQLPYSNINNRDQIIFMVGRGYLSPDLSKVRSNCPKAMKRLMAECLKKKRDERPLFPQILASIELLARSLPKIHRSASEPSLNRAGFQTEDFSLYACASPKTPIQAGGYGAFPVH
# Description: as §1
# The scale utilized in Table 3 is as follows: +++ less than 100 nM; and ++ greater than 100 nM.
# A375 cells = assay: Inhibition of cancer cell growth, MTT assay, A375; assay type: cell-based; conditions: Homo sapiens, A-375, 72 h exposure
# Description: as §2, §3
# Chain of KDR (VEGFR2) (P35968 20-1356): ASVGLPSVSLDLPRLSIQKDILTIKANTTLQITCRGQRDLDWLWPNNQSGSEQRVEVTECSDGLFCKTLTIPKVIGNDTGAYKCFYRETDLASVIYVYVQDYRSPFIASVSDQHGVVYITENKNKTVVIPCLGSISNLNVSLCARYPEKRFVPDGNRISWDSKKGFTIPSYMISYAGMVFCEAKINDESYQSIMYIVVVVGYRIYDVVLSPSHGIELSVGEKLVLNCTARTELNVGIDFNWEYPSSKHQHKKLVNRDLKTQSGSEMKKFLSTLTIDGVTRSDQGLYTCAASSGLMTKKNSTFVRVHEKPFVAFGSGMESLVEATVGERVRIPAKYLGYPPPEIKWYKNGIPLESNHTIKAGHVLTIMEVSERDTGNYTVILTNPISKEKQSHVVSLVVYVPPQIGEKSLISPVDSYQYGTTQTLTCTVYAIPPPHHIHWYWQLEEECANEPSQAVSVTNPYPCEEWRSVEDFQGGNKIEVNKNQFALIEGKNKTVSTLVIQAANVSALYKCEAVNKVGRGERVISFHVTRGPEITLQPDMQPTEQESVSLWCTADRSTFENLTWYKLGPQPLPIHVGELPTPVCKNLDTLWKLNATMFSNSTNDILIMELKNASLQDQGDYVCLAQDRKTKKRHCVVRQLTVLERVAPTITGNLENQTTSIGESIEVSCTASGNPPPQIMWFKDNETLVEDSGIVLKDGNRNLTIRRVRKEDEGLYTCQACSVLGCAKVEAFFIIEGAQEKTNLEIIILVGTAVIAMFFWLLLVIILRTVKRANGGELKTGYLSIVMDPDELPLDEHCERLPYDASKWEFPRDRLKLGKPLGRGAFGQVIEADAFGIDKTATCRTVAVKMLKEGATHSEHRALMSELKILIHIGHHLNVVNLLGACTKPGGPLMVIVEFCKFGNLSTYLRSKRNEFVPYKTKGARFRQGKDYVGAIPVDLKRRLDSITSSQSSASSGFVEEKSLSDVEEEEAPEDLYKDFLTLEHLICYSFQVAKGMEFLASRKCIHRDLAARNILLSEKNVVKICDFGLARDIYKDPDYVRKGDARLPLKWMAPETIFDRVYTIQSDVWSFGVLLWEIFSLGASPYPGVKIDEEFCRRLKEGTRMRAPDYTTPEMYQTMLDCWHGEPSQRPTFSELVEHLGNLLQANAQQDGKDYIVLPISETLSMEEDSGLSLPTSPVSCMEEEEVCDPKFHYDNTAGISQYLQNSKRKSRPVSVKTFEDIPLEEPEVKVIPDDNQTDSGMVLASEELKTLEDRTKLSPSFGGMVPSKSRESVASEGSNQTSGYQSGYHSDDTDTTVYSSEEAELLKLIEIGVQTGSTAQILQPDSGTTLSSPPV
compound,measurement,setting,value
"O=C(Nc1cc(F)cc(Cl)c1)Nc1ccc(F)c(C(=O)c2ccc3ncc(N4CCOCC4)nc3c2)c1 [Compound C059, 1-(3-chloro-5-fluorophenyl)-3-(4-fluoro-3-(3-morpholinoquinoxaline-6-carbonyl)phenyl)urea]",inhibition at 1 µM,KDR (VEGFR2),70 to 89%
same,IC50,A549 cells,2 to 5 µM
same,inhibition at 1 µM,BRAF V600E,> 89%
same,IC50,A375 cells,1 to 5 µM
"O=C(Nc1ccc(F)c(C(=O)c2ccc3nccnc3c2)c1)c1ccc(Cl)c(C(F)(F)F)c1 [Compound C117, 4-chloro-N-(4-fluoro-3-(quinoxaline-6-carbonyl)phenyl)-3-(trifluoromethyl)benzamide]",inhibition at 1 µM,KDR (VEGFR2),70 to 89%
same,IC50,A549 cells,2 to 5 µM
same,inhibition at 1 µM,BRAF V600E,> 89%
same,IC50,A375 cells,1 to 5 µM
"O=C(Nc1cc(F)cc(C(=O)c2ccc3ncc(N4CCOCC4)nc3c2)c1)Nc1ccc(F)c(F)c1 [Compound C049, 1-(3,4-difluorophenyl)-3-(3-fluoro-5-(3-morphlinoquinoxaline-6-carbonyl)phenyl)urea]",inhibition at 1 µM,KDR (VEGFR2),< 70%
same,IC50,A549 cells,2 to 5 µM
same,inhibition at 1 µM,BRAF V600E,> 89%
same,IC50,A375 cells,1 to 5 µM
"NCCNc1cnc2ccc(C(=O)c3cc(NC(=O)Nc4ccc(F)c(F)c4)ccc3F)cc2n1 [Compound C091, 1-(3-(3-((2-aminoethyl)amino)quinoxaline-6-carbonyl)-4-fluorophenyl)-3-(3,4-difluorophenyl)urea]",inhibition at 1 µM,KDR (VEGFR2),> 89%
same,IC50,A549 cells,> 5 µM
same,inhibition at 1 µM,BRAF V600E,> 89%
same,IC50,A375 cells,1 to 5 µM
"O=C(Nc1cc(F)cc(Cl)c1)Nc1cc(F)cc(C(=O)c2ccc3nccnc3c2)c1 [Compound C062, 1-(3-chloro-5-fluorophenyl)-3-(3-fluoro-5-(quinoxaline-6-carbonyl)phenyl)urea]",inhibition at 1 µM,KDR (VEGFR2),< 70%
same,IC50,A549 cells,2 to 5 µM
same,inhibition at 1 µM,BRAF V600E,> 89%
same,IC50,A375 cells,> 5 µM
"O=C(Nc1cccc(F)c1)Nc1cccc(C(=O)c2ccc3ncc(N4CCCC4)nc3c2)c1 [Compound C019, 1-(3-fluorophenyl)-3-(3-(3-(pyrrolidin-1-yl)quinoxaline-6-carbonyl)phenyl)urea]",inhibition at 1 µM,KDR (VEGFR2),> 89%
same,IC50,KDR (VEGFR2); read-out: IC50 against KDR,< 100 nM
same,IC50,A549 cells,> 5 µM
same,inhibition at 1 µM,BRAF V600E,> 89%
same,IC50,BRAF V600E; read-out: IC50 against BRAF V600E,< 100 nM
same,IC50,A375 cells,> 5 µM
"O=C(Nc1cccc(C(F)(F)F)c1)Nc1cc(F)c(F)c(C(=O)c2ccc3nccnc3c2)c1 [Compound C042, 1-(3,4-difluoro-5-(quinoxaline-6-carbonyl)phenyl)-3-(3-(trifluoromethyl)phenyl)urea]",inhibition at 1 µM,KDR (VEGFR2),< 70%
same,IC50,A549 cells,2 to 5 µM
same,inhibition at 1 µM,BRAF V600E,> 89%
same,IC50,A375 cells,1 to 5 µM
"O=C(Nc1cc(F)c(F)c(C(=O)c2ccc3nccnc3c2)c1F)c1ccc(Cl)c(C(F)(F)F)c1 [Compound C140, 4-chloro-N-(2,4,5-trifluoro-3-(quinoxaline-6-carbonyl)phenyl)-3-(trifluoromethyl)benzamide]",inhibition at 1 µM,KDR (VEGFR2),< 70%
same,IC50,A549 cells,> 5 µM
same,inhibition at 1 µM,BRAF V600E,70 to 89%
same,IC50,A375 cells,> 5 µM
"O=C(Nc1ccc(F)cc1)Nc1cc(F)cc(C(=O)c2ccc3ncc(N4CCOCC4)nc3c2)c1 [Compound C043, 1-(3-fluoro-5-(3-morpholinoquinoxaline-6-carbonyl)phenyl)-3-(4-fluorophenyl)urea]",inhibition at 1 µM,KDR (VEGFR2),< 70%
same,IC50,A549 cells,> 5 µM
same,inhibition at 1 µM,BRAF V600E,> 89%
same,IC50,A375 cells,> 5 µM
"O=C(Nc1ccc(C(F)(F)F)cc1)Nc1cc(F)cc(C(=O)c2ccc3nccnc3c2)c1 [Compound C066, 1-(3-fluoro-5-(quinoxaline-6-carbonyl)phenyl)-3-(4-(trifluoromethyl)phenyl)urea]",inhibition at 1 µM,KDR (VEGFR2),< 70%
same,IC50,A549 cells,2 to 5 µM
same,inhibition at 1 µM,BRAF V600E,> 89%
same,IC50,A375 cells,1 to 5 µM
"O=C(Nc1ccc(Cl)c(F)c1)Nc1ccc(F)c(C(=O)c2ccc3nccnc3c2)c1 [Compound C077, 1-(4-chloro-3-fluorophenyl)-3-(4-fluoro-3-(quinoxaline-6-carbonyl)phenyl)urea]",inhibition at 1 µM,KDR (VEGFR2),< 70%
same,IC50,A549 cells,> 5 µM
same,inhibition at 1 µM,BRAF V600E,> 89%
same,IC50,A375 cells,1 to 5 µM
"NCCNc1cnc2ccc(C(=O)c3cc(NC(=O)Nc4cc(F)cc(F)c4)ccc3F)cc2n1 [Compound C092, 1-(3-(3-((2-aminoethyl)amino)quinoxaline-6-carbonyl)-4-fluorophenyl)-3-(3,5-difluorophenyl)urea]",inhibition at 1 µM,KDR (VEGFR2),70 to 89%
same,IC50,A549 cells,> 5 µM
same,inhibition at 1 µM,BRAF V600E,> 89%
same,IC50,A375 cells,1 to 5 µM
"O=C(Nc1ccc(F)c(F)c1)Nc1ccc(F)c(C(=O)c2ccc3nccnc3c2)c1 [Compound C071, 1-(3,4-difluorophenyl)-3-(4-fluoro-3-(quinoxaline-6-carbonyl)phenyl)urea]",inhibition at 1 µM,KDR (VEGFR2),< 70%
same,IC50,A549 cells,> 5 µM
same,inhibition at 1 µM,BRAF V600E,> 89%
same,IC50,A375 cells,1 to 5 µM
"O=C(Nc1cccc(Cl)c1)Nc1ccc(F)c(C(=O)c2ccc3ncc(N4CCOCC4)nc3c2)c1 [Compound C056, 1-(3-chlorophenyl)-3-(4-fluoro-3-(3-morpholinoquinoxaline-6-carbonyl)phenyl)urea]",inhibition at 1 µM,KDR (VEGFR2),> 89%
same,IC50,A549 cells,2 to 5 µM
same,inhibition at 1 µM,BRAF V600E,> 89%
same,IC50,A375 cells,< 1 µM
"O=C(Nc1cccc(Cl)c1)Nc1ccc(F)c(C(=O)c2ccc3nccnc3c2)c1 [Compound C072, 1-(3-chlorophenyl)-3-(4-fluoro-3-(quinoxaline-6-carbonyl)phenyl)urea]",inhibition at 1 µM,KDR (VEGFR2),< 70%
same,IC50,A549 cells,> 5 µM
same,inhibition at 1 µM,BRAF V600E,> 89%
same,IC50,A375 cells,1 to 5 µM
"O=C(Nc1ccc(Cl)c(F)c1)Nc1ccc(F)c(C(=O)c2ccc3ncc(N4CCOCC4)nc3c2)c1 [Compound C052, 1-(4-chloro-3-fluorophenyl)-3-(4-fluoro-3-(3-morpholinoquinoxaline-6-carbonyl)phenyl)urea]",inhibition at 1 µM,KDR (VEGFR2),70 to 89%
same,IC50,A549 cells,< 2 µM
same,inhibition at 1 µM,BRAF V600E,> 89%
same,IC50,A375 cells,< 1 µM
"O=C(Nc1cccc(F)c1)Nc1ccc(F)c(C(=O)c2ccc3ncc(N4CCNCC4)nc3c2)c1 [Compound C084, 1-(4-fluoro-3-(3-(piperazin-1-yl)quinoxaline-6-carbonyl)phenyl)-3-(3-fluorophenyl)urea]",inhibition at 1 µM,KDR (VEGFR2),> 89%
same,IC50,A549 cells,2 to 5 µM
same,inhibition at 1 µM,BRAF V600E,> 89%
same,IC50,A375 cells,< 1 µM
"O=C(Nc1cc(F)cc(C(=O)c2ccc3nccnc3c2)c1)Nc1cccc(C(F)(F)F)c1 [Compound C027, 1-(3-fluoro-5-(quinoxaline-6-carbonyl)phenyl)-3-(3-(trifluoromethyl)phenyl)urea]",inhibition at 1 µM,KDR (VEGFR2),70 to 89%
same,IC50,A549 cells,< 2 µM
same,inhibition at 1 µM,BRAF V600E,> 89%
same,IC50,A375 cells,> 5 µM
"O=C(Nc1cc(F)cc(C(=O)c2ccc3nccnc3c2)c1)Nc1ccc(Cl)c(Cl)c1 [Compound C069, 1-(3,4-dichlorophenyl)-3-(3-fluoro-5-(quinoxaline-6-carbonyl)phenyl)urea]",inhibition at 1 µM,KDR (VEGFR2),< 70%
same,IC50,A549 cells,< 2 µM
same,inhibition at 1 µM,BRAF V600E,> 89%
same,IC50,A375 cells,> 5 µM
"O=C(Nc1cccc(C(=O)c2ccc3ncc(N4CCOCC4)nc3c2)c1)c1cccc(F)c1 [Compound C118, 3-fluoro-N-(3-(3-morpholinoquinoxaline-6-carbonyl)phenyl)benzamide]",inhibition at 1 µM,KDR (VEGFR2),70 to 89%
same,IC50,A549 cells,2 to 5 µM
same,inhibition at 1 µM,BRAF V600E,> 89%
same,IC50,A375 cells,1 to 5 µM
